ChEMBL document CHEMBL4507262, “Data for DCP probe A-1596586” (2021)

What was measured:
[1] = biological target: 5-hydroxytryptamine receptor 2A (Homo sapiens) (UniProt P28223); assay: 5-HT2A (h) Eurofins-Cerep binding assay; set-up: ligand concentration 0.5 nM; settings: filed as antagonist, Compound concentration 10.0 uM
[2] = tested on: Receptor-type tyrosine-protein kinase FLT3 (Homo sapiens), P36888 [UNDEFINED MUTATION]; settings: Compound concentration 1000.0 nM
[3] = tested on: Receptor-type tyrosine-protein kinase FLT3 (Homo sapiens), P36888 [D835Y]; settings: Compound concentration 1000.0 nM
[4] = biological target: Serine/threonine-protein kinase 32B (Homo sapiens) (UniProt Q9NY57); settings: Compound concentration 1000.0 nM
[5] = biological target: Casein kinase I isoform alpha (Homo sapiens) (UniProt P48729); settings: Compound concentration 1000.0 nM
[6] = biological target: Serine/threonine-protein kinase WNK1 (Homo sapiens) (UniProt Q9H4A3); settings: Compound concentration 1000.0 nM
[7] = tested on: ALK tyrosine kinase receptor (Homo sapiens), Q9UM73 [L1196M]; settings: Compound concentration 1000.0 nM
[8] = biological target: Serine/threonine-protein kinase BRSK2 (Homo sapiens) (UniProt Q8IWQ3); settings: Compound concentration 1000.0 nM
[9] = biological target: Delta-type opioid receptor (Homo sapiens) (UniProt P41143); assay: delta (DOP) (h) Eurofins-Cerep binding assay; set-up: ligand concentration 0.5 nM; settings: filed as agonist, Compound concentration 10.0 uM
[10] = biological target: Bone morphogenetic protein receptor type-1A (Homo sapiens) (UniProt P36894); settings: Compound concentration 1000.0 nM
[11] = tested on: Phosphatidylinositol 4,5-bisphosphate 3-kinase catalytic subunit alpha isoform (Homo sapiens), P42336 [M1043I]; settings: Compound concentration 1000.0 nM
[12] = biological target: MAO-A (amine oxidase [flavin-containing] A) (Rattus norvegicus, UniProt P21396); assay: MAO-A Eurofins-Cerep binding assay; set-up: incubation time 60 min, incubation temperature 37°C, ligand concentration 10 nM; settings: rat cerebral cortex, probe [3H]Ro 41-1049 (10 nM), compound concentration 10 uM, read-out: % Inhibition of Control Specific Binding (Mean n=2)
[13] = biological target: Membrane-associated tyrosine- and threonine-specific cdc2-inhibitory kinase (Homo sapiens) (UniProt Q99640); settings: Compound concentration 1000.0 nM
[14] = biological target: Citron Rho-interacting kinase (Homo sapiens) (UniProt O14578); settings: Compound concentration 1000.0 nM
[15] = biological target: High affinity nerve growth factor receptor (Homo sapiens) (UniProt P04629); settings: Compound concentration 1000.0 nM
[16] = tested on: Tyrosine-protein kinase ABL1 (Homo sapiens), P00519 [F317I]; settings: Compound concentration 1000.0 nM
[17] = biological target: Serine/threonine-protein kinase tousled-like 2 (Homo sapiens) (UniProt Q86UE8); settings: Compound concentration 1000.0 nM
[18] = biological target: Type-2 angiotensin II receptor (Homo sapiens) (UniProt P50052); assay: AT2 (h) Eurofins-Cerep binding assay; set-up: ligand concentration 0.01 nM; settings: filed as agonist, Compound concentration 10.0 uM
[19] = biological target: cAMP-dependent protein kinase catalytic subunit alpha (Homo sapiens) (UniProt P17612); settings: Compound concentration 1000.0 nM
[20] = biological target: Mitogen-activated protein kinase kinase kinase 14 (Homo sapiens) (UniProt Q99558); settings: Compound concentration 1000.0 nM
[21] = biological target: Serine/threonine-protein kinase DCLK3 (Homo sapiens) (UniProt Q9C098); settings: Compound concentration 1000.0 nM
[22] = biological target: Muscle, skeletal receptor tyrosine-protein kinase (Homo sapiens) (UniProt O15146); settings: Compound concentration 1000.0 nM
[23] = biological target: Sodium/potassium-transporting ATPase (Sus scrofa) (UniProt P05027+P05024+D2WKD8+D2WKD7+F1ST41); assay: ATPase (Na+/K+) Eurofins-Cerep enzyme and uptake assay; type: protein-complex assay; settings: Compound concentration 10.0 uM
[24] = biological target: Calcium-dependent protein kinase 1 (Plasmodium falciparum) (UniProt P62344); settings: Compound concentration 1000.0 nM
[25] = biological target: Macrophage-stimulating protein receptor (Homo sapiens) (UniProt Q04912); settings: Compound concentration 1000.0 nM
[26] = biological target: Histamine H4 receptor (Homo sapiens) (UniProt Q9H3N8); settings: Compound concentration 10.0 uM
[27] = biological target: Receptor tyrosine-protein kinase erbB-2 (Homo sapiens) (UniProt P04626); settings: Compound concentration 1000.0 nM
[28] = biological target: Endothelin-1 receptor (Homo sapiens) (UniProt P25101); assay: ETA (h) Eurofins-Cerep binding assay; set-up: ligand concentration 0.03 nM; settings: filed as agonist, Compound concentration 10.0 uM
[29] = biological target: Sodium-dependent serotonin transporter (Homo sapiens) (UniProt P31645); assay: 5-HT transporter (h) Eurofins-Cerep binding assay; set-up: ligand concentration 2 nM; settings: filed as antagonist, Compound concentration 10.0 uM
[30] = biological target: Mitogen-activated protein kinase kinase kinase 7 (Homo sapiens) (UniProt O43318); settings: Compound concentration 1000.0 nM
[31] = biological target: Ephrin type-B receptor 6 (Homo sapiens) (UniProt O15197); settings: Compound concentration 1000.0 nM
[32] = biological target: TGF-beta receptor type-2 (Homo sapiens) (UniProt P37173); settings: Compound concentration 1000.0 nM
[33] = biological target: T1, 5-hydroxytryptamine receptor 3A (Homo sapiens) (UniProt P46098); settings: Compound concentration 10.0 uM
T1 sequence (whole entry): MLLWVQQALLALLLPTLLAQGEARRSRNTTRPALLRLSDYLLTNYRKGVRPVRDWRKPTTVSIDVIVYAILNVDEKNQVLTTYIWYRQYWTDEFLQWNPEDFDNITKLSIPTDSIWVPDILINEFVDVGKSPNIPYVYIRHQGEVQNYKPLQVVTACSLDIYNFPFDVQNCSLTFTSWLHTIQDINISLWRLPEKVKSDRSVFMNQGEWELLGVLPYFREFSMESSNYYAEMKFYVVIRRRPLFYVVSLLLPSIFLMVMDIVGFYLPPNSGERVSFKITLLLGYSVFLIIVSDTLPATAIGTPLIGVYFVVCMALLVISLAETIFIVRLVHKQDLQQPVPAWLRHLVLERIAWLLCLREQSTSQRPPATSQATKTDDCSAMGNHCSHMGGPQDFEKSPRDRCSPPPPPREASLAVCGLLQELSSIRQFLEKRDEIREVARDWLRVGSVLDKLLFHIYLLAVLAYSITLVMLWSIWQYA

[34] = biological target: Protein kinase C epsilon type (Homo sapiens) (UniProt Q02156); settings: Compound concentration 1000.0 nM
[35] = biological target: Serine/threonine-protein kinase Chk2 (Homo sapiens) (UniProt O96017); settings: Compound concentration 1000.0 nM
[36] = biological target: Mast/stem cell growth factor receptor Kit (Homo sapiens) (UniProt P10721); settings: Compound concentration 1000.0 nM
[37] = biological target: Serine/threonine-protein kinase Sgk3 (Homo sapiens) (UniProt Q96BR1); settings: Compound concentration 1000.0 nM

Sequence of MAO-A (amine oxidase [flavin-containing] A) (P21396 whole entry): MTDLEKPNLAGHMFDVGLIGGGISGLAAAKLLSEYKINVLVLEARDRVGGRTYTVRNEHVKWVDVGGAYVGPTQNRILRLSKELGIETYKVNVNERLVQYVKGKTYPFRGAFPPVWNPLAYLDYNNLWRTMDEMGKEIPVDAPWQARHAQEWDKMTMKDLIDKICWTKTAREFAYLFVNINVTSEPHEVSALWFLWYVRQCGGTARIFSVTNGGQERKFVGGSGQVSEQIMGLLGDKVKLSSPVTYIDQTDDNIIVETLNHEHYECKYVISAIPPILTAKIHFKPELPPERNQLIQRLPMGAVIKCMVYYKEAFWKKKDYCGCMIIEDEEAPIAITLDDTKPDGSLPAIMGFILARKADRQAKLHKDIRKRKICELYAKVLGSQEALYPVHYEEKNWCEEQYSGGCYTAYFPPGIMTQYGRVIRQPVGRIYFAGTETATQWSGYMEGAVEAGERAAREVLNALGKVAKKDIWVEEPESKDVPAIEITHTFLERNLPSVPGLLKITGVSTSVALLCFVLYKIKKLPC
Sequence of Casein kinase I isoform alpha (Homo sapiens) (P48729 2-337 limits assumed): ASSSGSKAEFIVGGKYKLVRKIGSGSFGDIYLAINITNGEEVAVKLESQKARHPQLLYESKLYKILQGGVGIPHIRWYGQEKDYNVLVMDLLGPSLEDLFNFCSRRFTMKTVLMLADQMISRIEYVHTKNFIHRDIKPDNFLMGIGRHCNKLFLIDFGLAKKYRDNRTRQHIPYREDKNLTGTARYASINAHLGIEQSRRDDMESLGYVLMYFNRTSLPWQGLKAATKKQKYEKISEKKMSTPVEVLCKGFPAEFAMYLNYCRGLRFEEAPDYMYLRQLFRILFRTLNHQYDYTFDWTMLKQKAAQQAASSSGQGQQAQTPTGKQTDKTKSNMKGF
Sequence of Serine/threonine-protein kinase BRSK2 (Homo sapiens) (Q8IWQ3 whole entry): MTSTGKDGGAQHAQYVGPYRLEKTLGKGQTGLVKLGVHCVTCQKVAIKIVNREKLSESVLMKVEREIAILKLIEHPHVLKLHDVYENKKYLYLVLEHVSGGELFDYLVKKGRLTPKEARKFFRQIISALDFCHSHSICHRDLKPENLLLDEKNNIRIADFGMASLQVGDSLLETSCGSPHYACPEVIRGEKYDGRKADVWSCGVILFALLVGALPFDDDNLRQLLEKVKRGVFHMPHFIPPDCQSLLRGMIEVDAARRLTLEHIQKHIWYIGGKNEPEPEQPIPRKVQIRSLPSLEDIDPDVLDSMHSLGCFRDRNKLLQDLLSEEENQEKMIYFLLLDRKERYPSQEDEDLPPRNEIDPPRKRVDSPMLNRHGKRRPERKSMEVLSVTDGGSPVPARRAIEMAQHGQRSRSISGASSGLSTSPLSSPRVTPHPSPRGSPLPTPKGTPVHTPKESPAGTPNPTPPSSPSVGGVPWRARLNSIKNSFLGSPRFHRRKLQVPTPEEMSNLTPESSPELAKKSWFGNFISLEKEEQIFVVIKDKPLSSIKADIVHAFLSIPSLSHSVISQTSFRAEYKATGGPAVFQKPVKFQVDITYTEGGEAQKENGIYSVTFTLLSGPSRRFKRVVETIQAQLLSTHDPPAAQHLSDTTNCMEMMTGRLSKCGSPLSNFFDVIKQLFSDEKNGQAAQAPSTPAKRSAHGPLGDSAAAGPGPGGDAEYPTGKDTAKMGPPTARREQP
Sequence of Mitogen-activated protein kinase kinase kinase 7 (Homo sapiens) (O43318 whole entry): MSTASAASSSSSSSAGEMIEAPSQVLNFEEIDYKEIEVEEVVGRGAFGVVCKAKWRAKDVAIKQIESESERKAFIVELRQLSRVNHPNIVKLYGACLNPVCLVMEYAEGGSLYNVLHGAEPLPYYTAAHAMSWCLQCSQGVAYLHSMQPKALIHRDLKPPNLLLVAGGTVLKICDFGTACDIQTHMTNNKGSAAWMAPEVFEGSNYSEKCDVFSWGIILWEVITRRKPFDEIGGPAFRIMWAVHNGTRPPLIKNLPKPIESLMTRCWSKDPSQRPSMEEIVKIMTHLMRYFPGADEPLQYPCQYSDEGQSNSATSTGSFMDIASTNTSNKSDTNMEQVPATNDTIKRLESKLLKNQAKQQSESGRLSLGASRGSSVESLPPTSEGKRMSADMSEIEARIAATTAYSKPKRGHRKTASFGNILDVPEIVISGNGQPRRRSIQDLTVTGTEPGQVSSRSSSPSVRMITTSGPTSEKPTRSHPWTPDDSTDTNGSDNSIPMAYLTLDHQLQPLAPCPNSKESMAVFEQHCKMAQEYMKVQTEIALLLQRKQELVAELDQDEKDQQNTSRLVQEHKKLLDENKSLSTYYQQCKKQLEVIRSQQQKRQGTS
Sequence of TGF-beta receptor type-2 (Homo sapiens) (P37173 whole entry): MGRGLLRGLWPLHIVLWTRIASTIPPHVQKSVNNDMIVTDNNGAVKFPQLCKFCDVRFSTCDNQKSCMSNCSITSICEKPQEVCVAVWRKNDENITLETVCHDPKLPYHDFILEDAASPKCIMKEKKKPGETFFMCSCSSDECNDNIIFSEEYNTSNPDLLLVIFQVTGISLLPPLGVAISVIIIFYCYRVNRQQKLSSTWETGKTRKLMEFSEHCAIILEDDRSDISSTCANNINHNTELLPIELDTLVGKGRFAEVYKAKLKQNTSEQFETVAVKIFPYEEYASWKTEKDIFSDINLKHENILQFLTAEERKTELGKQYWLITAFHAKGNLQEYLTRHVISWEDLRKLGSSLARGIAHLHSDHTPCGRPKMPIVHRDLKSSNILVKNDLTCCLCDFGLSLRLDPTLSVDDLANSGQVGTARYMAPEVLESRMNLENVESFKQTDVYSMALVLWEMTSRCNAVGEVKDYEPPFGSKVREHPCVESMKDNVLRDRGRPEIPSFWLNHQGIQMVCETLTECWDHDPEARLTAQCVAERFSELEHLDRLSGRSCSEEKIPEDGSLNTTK
Sequence of Serine/threonine-protein kinase tousled-like 2 (Homo sapiens) (Q86UE8 whole entry, looked up): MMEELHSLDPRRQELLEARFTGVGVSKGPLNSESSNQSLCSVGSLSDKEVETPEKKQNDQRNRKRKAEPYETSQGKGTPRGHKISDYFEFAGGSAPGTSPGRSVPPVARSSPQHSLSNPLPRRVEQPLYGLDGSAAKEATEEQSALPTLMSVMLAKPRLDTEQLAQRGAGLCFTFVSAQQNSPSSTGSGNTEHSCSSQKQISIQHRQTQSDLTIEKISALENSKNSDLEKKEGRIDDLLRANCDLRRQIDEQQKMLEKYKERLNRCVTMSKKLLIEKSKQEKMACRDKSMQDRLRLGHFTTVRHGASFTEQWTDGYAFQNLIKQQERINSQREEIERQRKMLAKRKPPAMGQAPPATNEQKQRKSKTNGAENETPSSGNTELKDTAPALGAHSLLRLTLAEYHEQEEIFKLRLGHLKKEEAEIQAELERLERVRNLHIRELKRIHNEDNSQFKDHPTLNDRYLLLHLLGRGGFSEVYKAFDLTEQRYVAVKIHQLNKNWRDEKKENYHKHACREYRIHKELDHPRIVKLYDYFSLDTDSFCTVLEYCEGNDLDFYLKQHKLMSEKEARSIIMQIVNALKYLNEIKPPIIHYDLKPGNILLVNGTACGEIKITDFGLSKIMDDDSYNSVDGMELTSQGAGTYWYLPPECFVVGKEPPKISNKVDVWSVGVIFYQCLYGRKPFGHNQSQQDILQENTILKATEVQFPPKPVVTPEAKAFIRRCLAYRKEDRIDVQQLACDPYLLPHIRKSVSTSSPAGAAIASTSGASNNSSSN
Sequence of Tyrosine-protein kinase ABL1 (Homo sapiens), P00519 [F317I] (P00519 whole entry F317I): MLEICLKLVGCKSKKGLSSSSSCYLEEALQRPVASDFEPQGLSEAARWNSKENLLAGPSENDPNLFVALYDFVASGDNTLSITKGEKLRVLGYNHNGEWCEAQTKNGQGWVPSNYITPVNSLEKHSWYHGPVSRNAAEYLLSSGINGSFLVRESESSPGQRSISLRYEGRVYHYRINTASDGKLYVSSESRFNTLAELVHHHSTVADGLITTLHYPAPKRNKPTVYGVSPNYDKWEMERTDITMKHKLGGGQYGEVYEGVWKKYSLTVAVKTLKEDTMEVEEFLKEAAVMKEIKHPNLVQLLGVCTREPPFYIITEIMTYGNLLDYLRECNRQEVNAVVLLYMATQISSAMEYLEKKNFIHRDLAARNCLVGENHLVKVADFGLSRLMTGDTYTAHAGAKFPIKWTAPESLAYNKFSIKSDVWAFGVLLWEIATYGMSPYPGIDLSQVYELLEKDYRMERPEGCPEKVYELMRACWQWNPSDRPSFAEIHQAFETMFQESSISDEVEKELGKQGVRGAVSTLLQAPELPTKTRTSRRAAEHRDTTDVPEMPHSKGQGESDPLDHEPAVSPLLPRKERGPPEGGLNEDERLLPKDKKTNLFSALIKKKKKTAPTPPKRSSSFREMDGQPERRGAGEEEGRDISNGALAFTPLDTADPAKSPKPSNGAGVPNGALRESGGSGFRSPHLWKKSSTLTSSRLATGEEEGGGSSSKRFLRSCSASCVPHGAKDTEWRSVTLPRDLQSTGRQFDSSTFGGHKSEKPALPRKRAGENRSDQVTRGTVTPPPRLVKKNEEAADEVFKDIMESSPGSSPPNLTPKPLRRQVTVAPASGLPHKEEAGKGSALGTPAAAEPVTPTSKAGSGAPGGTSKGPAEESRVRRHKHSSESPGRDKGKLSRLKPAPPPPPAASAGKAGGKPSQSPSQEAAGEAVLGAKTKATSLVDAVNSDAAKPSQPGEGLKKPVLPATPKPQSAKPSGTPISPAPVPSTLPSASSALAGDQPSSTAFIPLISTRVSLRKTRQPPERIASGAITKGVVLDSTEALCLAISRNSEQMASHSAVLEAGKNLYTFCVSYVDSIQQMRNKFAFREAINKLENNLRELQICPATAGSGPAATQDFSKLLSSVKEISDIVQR
Sequence of Delta-type opioid receptor (Homo sapiens) (P41143 whole entry): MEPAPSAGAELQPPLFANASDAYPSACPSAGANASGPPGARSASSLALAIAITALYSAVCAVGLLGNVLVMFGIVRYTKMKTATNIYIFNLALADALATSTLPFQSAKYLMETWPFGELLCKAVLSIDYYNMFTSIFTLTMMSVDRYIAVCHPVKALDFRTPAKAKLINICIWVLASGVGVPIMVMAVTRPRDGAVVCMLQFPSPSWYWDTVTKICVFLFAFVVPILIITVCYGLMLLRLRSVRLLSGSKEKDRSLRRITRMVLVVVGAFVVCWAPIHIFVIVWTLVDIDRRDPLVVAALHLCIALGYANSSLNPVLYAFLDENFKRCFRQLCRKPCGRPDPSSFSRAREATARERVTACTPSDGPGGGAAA

SMILES	% Inhibition of Control Specific Binding (Mean n=2) [1]	residual activity [2]	residual activity [3]	residual activity [4]	residual activity [5]	residual activity [6]	residual activity [7]	residual activity [8]	% Inhibition of Control Specific Binding (Mean n=2) [9]	residual activity [10]	residual activity [11]	inhibition at 60 min, 10 µM [12]	residual activity [13]	residual activity [14]	residual activity [15]	residual activity [16]	residual activity [17]	% Inhibition of Control Specific Binding (Mean n=2) [18]	residual activity [19]	residual activity [20]	other results
COc1ccc2c(c1)O[C@@H](c1ccc(OC)c(OC)c1)C[C@H]2NC(=O)C1(c2ccc3c(c2)OC(F)(F)O3)CC1 [A-1596586]	-7.4%	76%	100%	100%	78%	100%	90%	100%	8.8%	92%	91%	-1.1%	90%	90%	100%	78%	100%	4.9%	100%	87%	residual activity [21]: 98%; residual activity [22]: 94%; % Inhibition of Control Values (Mean n=2) [23]: 0.8%; residual activity [24]: 70%; residual activity [25]: 94%; inhibition [26]: -2.97%; residual activity [27]: 75%; % Inhibition of Control Specific Binding (Mean n=2) [28]: -6.9%; % Inhibition of Control Specific Binding (Mean n=2) [29]: 11.7%; residual activity [30]: 100%; residual activity [31]: 61%; residual activity [32]: 87%; inhibition [33]: -1.13%; residual activity [34]: 91%; residual activity [35]: 84%; residual activity [36]: 88%; residual activity [37]: 84%
COc1ccc2c(c1)O[C@H](c1ccc(OC)c(OC)c1)C[C@@H]2NC(=O)C1(c2ccc3c(c2)OC(F)(F)O3)CC1 [A-1596584]	-3.7%	87%	100%	100%	82%	100%	100%	88%	2.2%	98%	84%	6.4%	100%	92%	100%	100%	98%	-3.4%	100%	100%	residual activity [21]: 100%; residual activity [22]: 100%; % Inhibition of Control Values (Mean n=2) [23]: 2.2%; residual activity [24]: 79%; residual activity [25]: 100%; inhibition [26]: 6.21%; residual activity [27]: 100%; % Inhibition of Control Specific Binding (Mean n=2) [28]: 4%; % Inhibition of Control Specific Binding (Mean n=2) [29]: 7%; residual activity [30]: 100%; residual activity [31]: 85%; residual activity [32]: 100%; inhibition [33]: -3.53%; residual activity [34]: 90%; residual activity [35]: 100%; residual activity [36]: 99%; residual activity [37]: 100%
